Test results: patent US6602274B1, “Targeted transcutaneous cancer therapy” (Light Sciences Corporation, priority 1999, dated 2003)

How the values were obtained:
[1] = tested on: colon carcinoma tumor mass; assay: Photodynamic therapy of a solid tumor with implanted LED light source probes after oral ALA; format: in vivo, human
Description: A patient in the terminal phase of recurrent malignant colon cancer presented with a protruding colon carcinoma tumor mass of approximately 500 grams and approximately 13 cm in diameter, which extended through the patient's dermis. Due to the advanced state of the patient's disease and due to the highly vascularized nature of this tumor mass, resection was not feasible. Further, this large tumor mass presented a significant amount of pain and discomfort to the patient, as well as greatly impairing the patient's ability to lie flat.
Six separate light source probes, each including a linear array of LEDs, were surgically implanted in this large human tumor using standard surgical procedures. An intensity of about 25-30 mW of light from each light source probe (650 nm peak wavelength) was delivered to the tumor for 40 hours following oral administration to the patient of a single dose of an (ALA) photosensitizer agent (60 mg/kg). However, after 18 hours, two of the light source probes became unseated from the tumor mass and were disconnected from the electrical power supply used to energize the LEDs on each probe. The total fluence delivered to the tumor bed during this single extended duration treatment was in excess of 20,000 Joules. […] The extent of this PDT induced necrotic effect in a large volume of tumor tissue was totally unexpected and has not been described before in any PDT studies in subjects in vivo or clinically. Over the course of four weeks following PDT, the necrotic tumor tissue was debrided from the patient resulting in a reduction of approximately 500 grams of tumor tissue.
The fluence rate employed in this Example represented about 150-180 mW/cm^2, with a total fluence more than 20,000 Joules. The preferable fluence rate contemplated more broadly by the present invention is between about 5 mW/cm^2 and about 100 mW/cm^2, more preferably, between about 10 mW/cm^2 and about 75 mW/cm^2, and most preferably, between about 15 mW/cm^2 and about 50 mW/cm^2.

[2] = systemic administration, clinical use; cited from earlier work
virus-infected T cells = virus-infected T cells treated with BPD, exposed to light; Blood Cells 18:129-40 (1992); cited from earlier work

NCC(=O)CCC(=O)O [ALA, aminolevulinic acid]
Extensive tumor necrosis, radius around each of the light source probes ([1]; one patient, single oral dose 60 mg/kg, 650 nm light, 40 hours of PDT, total fluence in excess of 20,000 Joules): up to 5 cm
collateral damage to surrounding normal tissue ([1]; one patient, single oral dose 60 mg/kg, after 40 hours of PDT): no collateral damage
reduction of tumor tissue (necrotic tumor tissue debrided) ([1]; over the course of four weeks following PDT, tumor mass of approximately 500 grams): approximately 500 grams

Oc1cccc(-c2c3nc(c(-c4cccc(O)c4)c4ccc([nH]4)c(-c4cccc(O)c4)c4nc(c(-c5cccc(O)c5)c5ccc2[nH]5)CC4)C=C3)c1 [FOSCAN]
duration of general dermal photosensitivity / sensitization of the skin to light [2]: at least several weeks

sodium porfimer [PHOTOPHRIN]
duration of general dermal photosensitivity / sensitization of the skin to light [2]: up to six weeks

benzoporphyrin derivatives [BPD]
effect on T cell membrane after exposure to light (virus-infected T cells): holes developed in the T cell membrane and increased in size until the membrane completely decomposed

CCOC(=O)C1=Cc2c3nc(cc4nc(cc5[n-]c(cc6[n-]c2c(C)c6CC)c(C)c5CC)C(C)=C4CC)[C@@H](C)[C@]13CC.[Cl-].[Cl-].[Sn] (racemic) [PURLYTIN]
duration of general dermal photosensitivity / sensitization of the skin to light [2]: at least several weeks
